Assay results from PubChem BioAssay AID1996.
In brackets after ≈: the same amount, converted by molar mass.

details: buffer; pH 7.4; 200.0 µM

SMILES | solubility kinetic [µg/mL]
COc1ccc(NC(=O)CC2SC(N3CCCC3)=NC2=O)cc1Cl (stereo not given) | 6.8 (≈ 18.5 µM)
Cc1ccc(NC(=O)CCNC(=O)c2ccc(Cl)cc2)nc1 | 16.8 (≈ 52.9 µM)
CC(CN1CCN(C)CC1)OC(=O)c1ccc(F)cc1.Cl (stereo not given) | > 47.5
CCN1CCN(C(=O)COc2ccc3oc4c(c3c2)CCCC4)CC1 | > 51.4
CC(C)(CNC(=O)c1ccc(Br)o1)N1CCOCC1 | 42.8 (≈ 129 µM)
O=C(Nc1ccccc1)c1ccc(=O)n(Cc2cccc(Cl)c2)c1 | 22.1 (≈ 65.2 µM)
O=C(COC(=O)/C=C/c1ccc(C(F)(F)F)cc1)NC1CCCC1 | < 0.7
COC(=O)C1=C(NC(=O)c2ccccc2[N+](=O)[O-])CCS1 | 8.4 (≈ 27.2 µM)
COc1ccccc1NC(=O)CCSc1nc(C)cs1 | > 46.3
O=C(Nc1ccccc1F)C1COc2ccccc2O1 (stereo not given) | 25.6 (≈ 93.7 µM)
COc1ccc(COCC(O)CN2CCC(C(N)=O)CC2)cc1 (stereo not given) | > 48.4
CC1CCCN(C(=O)COC(=O)COc2ccc(Cl)cc2)C1 (stereo not given) | 20.2 (≈ 62 µM)
Cn1cc(-c2cccc(C(F)(F)F)c2)cc(C#N)c1=O | 7.6 (≈ 27.3 µM)
COc1ccc2nc(C)c3c(c2c1)OC(C(C)(Cl)Br)C3 (stereo not given) | 4 (≈ 11.2 µM)
O=S(=O)(c1ccc(Cl)cc1)N1CCCCC1c1cccnc1 (stereo not given) | 47.7 (≈ 142 µM)
O=C(OCC(=O)N1CCCC1)c1cc(F)c(F)cc1Cl | 45.3 (≈ 149 µM)
COC(=O)c1ccc(OC)c(Cn2c(=O)n(C)c(=O)c3ccccc32)c1 | 2.2 (≈ 6.21 µM)
COc1cc(C(=O)O/N=C(\N)c2ccccn2)cc(OC)c1OC | > 49.7
CC(C)(C)c1ccc(OCCCCCCN2CCNCC2)cc1 | 31.9 (≈ 100 µM)
Cn1c(CC(=O)NNC(=O)c2ccccc2F)nc2ccccc21 | > 48.9
COc1ccc(C(=O)N(C)Cc2ccccc2F)cc1S(=O)(=O)N1CCCC1 | > 61
CC(NS(=O)(=O)c1ccc(N)cc1)C1CC2CCC1C2 (stereo not given) | 6.8 (≈ 23.1 µM)
CCn1c(SCC(=O)N2CCCC2)nc2c(c1=O)SCC2 | > 48.8
CCC(C)[C@H](NC(=O)NCc1ccc(F)cc1)C(=O)O (stereo not given in full) | > 42.3

SMILES | solubility kinetic [µg/mL]
Cl.O=C(CN1CCCC1)Nc1cccc(Cl)c1 | > 41.3
CC(Cc1ccccc1)NC(=O)Cc1ccc([N+](=O)[O-])cc1 (stereo not given) | 22.6 (≈ 75.8 µM)
CC(C)N(CC(N)=O)c1ncnc2sc(-c3ccccc3)cc12 | 10.4 (≈ 31.9 µM)
COc1cc(C)ccc1OCC(=O)OCC(=O)c1ccc[nH]1 | > 45.5
NC(=O)NC(=O)COC(=O)/C=C/c1cccc(Br)c1 | 0.4 (≈ 1.22 µM)
CCCC(=O)Nc1ccc2c(c1)Cc1ccccc1-2 | 1.5 (≈ 5.97 µM)
N#CC(C#N)=C/C=C(\Nc1ccc(Cl)cc1)c1ccc(Cl)cc1 | > 51
O=C1CC2C(=O)NCCN2C(=NC(=O)c2ccccc2)N1 (stereo not given) | 41.2 (≈ 144 µM)
C=CCN1C(=O)/C(=C/c2ccc(Br)s2)C(=O)NC1=S | 15.7 (≈ 43.9 µM)
O=C(CN1C(=O)NC(CCc2ccccc2)C1=O)Nc1ccccc1C(F)(F)F (stereo not given) | 5.2 (≈ 12.8 µM)
Cc1ccc2c(C)c(C(=O)NCCc3ccco3)oc2c1C | 2.8 (≈ 9.42 µM)
CCCc1cc(C(=O)Nc2cccc([N+](=O)[O-])c2)cs1 | 1.7 (≈ 5.86 µM)
CC(C)CC(=O)Nc1ccc2c(c1)nc(CCN1CCOCC1)n2C | > 51.7
O=C(CCCN1C(=O)/C(=C\c2ccccc2)SC1=S)N1CCOCC1 | 9.8 (≈ 26 µM)
Cc1cccc(NC(=O)COC(=O)c2ccccn2)c1 | 34.9 (≈ 129 µM)
CC(=O)c1ccc(S(=O)(=O)NC2CCCCCCC2)cc1 | 45.1 (≈ 146 µM)
Cc1ccc(C(=O)Nc2ccc(Cl)cc2C)c(Cl)c1 | < 0.6
N#Cc1nc(COc2ccc(F)cc2)oc1N1CCCCC1 | 11.7 (≈ 38.8 µM)
COc1ccc(-c2cc(C(=O)NCc3ccco3)c3ccccc3n2)c(OC)c1 | 8.3 (≈ 21.4 µM)
CC(=O)N1CCN(c2c(F)c(F)c(C(F)(F)F)c(F)c2F)CC1 | 47.9 (≈ 139 µM)
CSCC(=O)NCC1(N(C)Cc2ccccc2)Cc2ccccc2C1 | > 53.2
N#CCn1c(Cc2ccccc2)nc2ccccc2c1=O | > 41.3
CCCNC(=O)Cn1nc(C(F)(F)F)c2c1CCC2 | > 41.3
CCNc1cc(N2CCOCC2)nc(SC)n1 | > 38.2

SMILES | solubility kinetic [µg/mL]
Cl.NCCC(=O)N1c2ccccc2Sc2ccccc21 | 29.9
Fc1ccc(C2CC(c3ccco3)=Nc3ccccc3S2)cc1 (stereo not given) | < 0.7
S=C(NCc1ccco1)NCc1ccccc1Cl | > 42.1
Cc1sc2ncnc(SCC(=O)NC(C)(C)C)c2c1C | 19.3 (≈ 62.4 µM)
CCn1cc(C(=O)NCCc2ccc(Cl)cc2)c(=O)c2ccc(C)nc21 | 5.1 (≈ 13.8 µM)
Cc1cccc(OCC(=O)NCC(C)(C)N2CCOCC2)c1 | > 46
O=C(NC1CCN(c2ncccn2)CC1)c1cccc(F)c1 | 32.8 (≈ 109 µM)
O=C(Nc1ccccc1-c1ccccc1)c1ccccc1Br | 33.7 (≈ 95.7 µM)
CCOC(=O)c1c[nH]c(=S)n1C | > 27.9
CS(=O)(=O)N(CC(=O)N1CCOCC1)c1cccc([N+](=O)[O-])c1 | > 51.5
N#Cc1ccc(C(=O)N2CCN(c3ncccn3)CC2)cc1 | > 44
CC(=O)Nc1ccc(SCC(=O)NCC2(N3CCCCC3)CCCCC2)cc1 | > 60.5
Cl.O=C(NCCN1CCCC1)c1ccc(Br)cc1 | > 50
O=C(c1ccc2[nH]c(=O)c(=O)[nH]c2c1)N1CCc2ccccc21 | 43 (≈ 140 µM)
Cc1ccc(CNC(=O)CN2C(=O)c3ccccc3S2(=O)=O)cc1 | 12.5 (≈ 36.3 µM)
COc1ccc(NC(=O)O/N=C/c2ccc(N(C)C)cc2)cc1 | 2.8 (≈ 8.94 µM)
CCC(C(=O)OC)n1cnc2c(oc3ccccc32)c1=O (stereo not given) | > 42.9
O=[N+]([O-])c1ccc(Cl)c(NC(=S)N2CCCC2)c1 | 9.7 (≈ 33.9 µM)
CC(C)C(NC(=O)c1ccccc1)C(=O)NCCc1ccccc1 (stereo not given) | 9.4 (≈ 29 µM)
CN(Cc1ccccc1)C(=O)Cc1ccccc1 | 35.5 (≈ 148 µM)
Cc1oc(C)c(S(=O)(=O)NCc2cccs2)c1C(=O)O | > 47.3
Cc1cccc(NC(=S)NC(=O)c2ccco2)c1C | 36.7 (≈ 134 µM)
CCn1c(/C=C/c2ccc(F)cc2)nc2ccccc2c1=O | 1.6 (≈ 5.44 µM)
CCC(C)NC(=O)COC(=O)c1ccc(Cl)cc1O (stereo not given) | 4.7 (≈ 16.4 µM)

SMILES | solubility kinetic [µg/mL]
Cc1cc(-c2onc(C)c2C(N)=O)no1 | > 31.1
CC(C)Sc1nc2c([nH]1)c(=N)ncn2Cc1ccccc1 | > 44.9
CCc1sc(C(=O)Nc2nccs2)cc1C | 3.6 (≈ 14.3 µM)
COc1ccc(C(=O)Nc2ccc(NC(=O)Cc3ccccc3)cn2)cc1 | 0.4 (≈ 1.11 µM)
COc1cccc(NC(=S)N2CCCN(Cc3ccc(F)cc3)C2)c1 | 49.8 (≈ 139 µM)
COc1cc(/C=C/C(=O)OCC(=O)NCc2ccc3c(c2)OCO3)cc(OC)c1OC | 4.3 (≈ 10 µM)
Cc1c(C(=O)NCc2ccco2)oc2c(Cl)cccc12 | 2.4 (≈ 8.28 µM)
CC(C)(C)c1ccc(-c2noc(CNC(=O)c3ccco3)n2)cc1 | 3.8 (≈ 11.7 µM)
CCOC(=O)CNc1cccc(C(F)(F)F)c1 | 8 (≈ 32.4 µM)
O=[N+]([O-])c1ccc(SCCO)nc1SCCO | > 41.4
CCC(=O)Nc1cc2c3c(c1)CCC(=O)N3CCC2 | > 38.7
O=C(Nc1ccc(Cl)c(Cl)c1)Nc1ccccn1 | < 0.2
CC(C)c1ccc(NC(=O)c2ccccc2NC(=O)C2CC=CCC2C(=O)O)cc1 (stereo not given) | > 61
O=C(O)Cc1c[nH]c2ccccc12 | > 26.3
CC(OC(=O)c1ccc2ccccc2n1)C(=O)c1ccccc1 (stereo not given) | > 45.8
O=C(COC(=O)C1CC1)Nc1ccc(Cl)cn1 | > 38.2
COc1ccc(C(=O)CSc2cc(C)[nH]c(=O)n2)cc1 | 23.7 (≈ 81.6 µM)
Cc1ccc(N2N=C(C(=O)O)CCC2=O)cc1Cl | > 40
Cc1ccc(NS(=O)(=O)c2ccc(C(C)C)cc2)cc1S(=O)(=O)N1CCOCC1 | 27.4 (≈ 62.5 µM)
CC(/C=C1\SC(=S)N(CC(=O)O)C1=O)=C\c1ccccc1 | > 47.9
Cn1c(CO)cnc1S(=O)(=O)Cc1c(Cl)cccc1Cl | > 50.3
CCOc1cc(/C=C2\N=C(C)OC2=O)cc(Cl)c1OCC(=O)OC | 23.1 (≈ 65.3 µM)
Cc1ccc(-c2ncns2)cc1 | 0.5 (≈ 2.84 µM)
CN(C)S(=O)(=O)c1ccc(C(=O)Nc2ccc3nc(N4CCOCC4)sc3c2)cc1 | 4.1 (≈ 9.18 µM)

SMILES | solubility kinetic [µg/mL]
COC(=O)c1sc(NC(=O)c2ccco2)c(C#N)c1C | 3.7 (≈ 12.7 µM)
O=C(Nc1ccccc1)O/N=C/c1ccc(F)cc1 | 12.8 (≈ 49.6 µM)
Cc1nc(C)c(C(=O)O)c(-c2ccsc2)c1C(=O)O | > 41.6
CCOC(=O)Cc1csc(NC(=O)Cc2ccc(Br)cc2)n1 | 5.9 (≈ 15.4 µM)
CN(C)c1ccc(S(=O)(=O)N2CCCCC2)cc1NC(=O)C1=COCCO1 | 12 (≈ 30.3 µM)
Clc1ccc(SCc2csc(N3CCOCC3)n2)cc1 | 10.2 (≈ 31.2 µM)
O=C1CCC(C(=O)Nc2ccccc2N2CCCC2)=NN1 | > 42.9
Cc1c(Cl)cccc1NC(=S)Nc1ccc(S(=O)(=O)Nc2ncccn2)cc1 | 64.9 (≈ 150 µM)
N/C(=N\OC(=O)/C=C/c1ccccc1)c1ccncc1 | 34.6 (≈ 129 µM)
Cc1ccccc1-c1nc2ccccc2c(=O)n1C | 35.8 (≈ 143 µM)
CC(=O)Nc1ccc(S(=O)(=O)N(CC(=O)NC2CC2)Cc2ccccc2)cc1 | > 60.2
O=C(Cn1c(CO)nc2ccccc21)NC1CCCCCC1 | > 45.2
NC(=O)COC(=O)CCSc1ccc(Cl)cc1 | 30.2 (≈ 110 µM)
COc1ccccc1NC(=O)c1cc(OC)c(OC)cc1[N+](=O)[O-] | > 49.8
CN(CC(=O)Nc1ccc(OC(F)F)cc1)S(=O)(=O)/C=C/c1ccccc1 | 5.4 (≈ 13.6 µM)
CC(C)Cc1cc(C(=O)Nc2cccc(O)c2)no1 | 13.6 (≈ 52.2 µM)
O=C(NCCOc1ccccc1)c1ccccc1Cl | > 41.4
CC(C)OP(=O)(OC(C)C)C(O)c1ccc(N(C)C)cc1 (stereo not given) | > 47.3
Cc1ccc2[nH]cc(CCNC(=O)c3ccco3)c2c1 | 38.1 (≈ 142 µM)
CCCc1[nH]n(-c2nc3ccccc3s2)c(=O)c1C=NCCCOC | > 53.8
O=C1OCCC1Sc1nnc(-c2ccco2)n1-c1ccccc1 (stereo not given) | > 49.1
CC(=O)OC(C(=O)NC1CCCCC1)c1cccc(F)c1 (stereo not given) | > 44
Cc1cccc(NC(=O)CNC(=O)COC(=O)C2CC2C)c1C (stereo not given) | > 47.8
COc1cc(N2C(=O)CC3(CCCC3)CC2=O)cc(OC)c1OC | 47.2 (≈ 142 µM)
